“Also recorded” adds a separate entry of the source.
Legend:
[1] = oral treatment, literature reports; cited from earlier work
[2] = test system: toenail onychomycosis; conditions: oral treatment, toenail onychomycosis (Einarson et al. 1994); cited from earlier work
[3] = test system: Scytalidium dimidiatum; assay: Zone of inhibition assay (agar plates); type: cell-based; parameters: key: X denotes no observable zone of inhibition; conditions: after 7 days, 250 μg/mL
[4] = test system: Epidermophyton floccosum; assay: Zone of inhibition assay (agar plates); type: cell-based; parameters: key to Zone of Inhibition: X denotes no observable zone of inhibition; conditions: after 7 days, 250 μg/mL
[5] = test system: S. hyalinum; assay: Zone of inhibition assay (agar plates); type: cell-based, Scytalidium hyalinum; parameters: key to Zone of Inhibition: X denotes no observable zone of inhibition; conditions: after 7 days, 250 μg/mL
[6] = test system: T. rubrum; assay: Zone of inhibition assay (agar plates); type: cell-based; conditions: Trichophyton rubrum, 168 h; after 7 days, 250 μg/mL
[7] = test system: Acremonium chrysogenum; assay: Zone of inhibition assay (agar plates); type: cell-based; conditions: Hapsidospora chrysogena, 168 h; after 7 days, 250 μg/mL
[8] = test system: Fusarium oxysporum; assay: Zone of inhibition assay (agar plates); type: cell-based; parameters: key to Zone of Inhibition: X denotes no observable zone of inhibition; conditions: after 7 days, 250 μg/mL
[9] = test system: Microsporum canis; assay: Zone of inhibition assay (agar plates); type: cell-based; conditions: 168 h, after 7 days, 250 μg/mL
[10] = test system: Scopulariopsis brevicaulis; assay: Zone of inhibition assay (agar plates); type: cell-based; parameters: key to Zone of Inhibition: X denotes no observable zone of inhibition; conditions: after 7 days, 250 μg/mL
[11] = test system: A. strictum; assay: Zone of inhibition assay (agar plates); type: cell-based, Acremonium strictum; parameters: key to Zone of Inhibition: X denotes no observable zone of inhibition; conditions: after 7 days, 250 μg/mL; for zone of inhibition at 250 µg/mL: Sarocladium strictum, 168 h
[12] = test system: C. parapsilosis; assay: Zone of inhibition assay (agar plates); type: cell-based; conditions: Lodderomyces parapsilosis, 168 h; after 7 days, 250 μg/mL
[13] = test system: A. terreus; assay: Zone of inhibition assay (agar plates); type: cell-based, Aspergillus terreus; parameters: key to Zone of Inhibition: X denotes no observable zone of inhibition; conditions: after 7 days, 250 μg/mL
[14] = test system: Candida albicans; assay: Zone of inhibition assay (agar plates); type: cell-based; conditions: 168 h, after 7 days, 250 μg/mL
[15] = test system: F. proliferatum; assay: Zone of inhibition assay (agar plates); type: cell-based; parameters: key to Zone of Inhibition: X denotes no observable zone of inhibition; conditions: after 7 days, 250 μg/mL
[16] = test system: C. kruseii; assay: Zone of inhibition assay (agar plates); type: cell-based; parameters: key to Zone of Inhibition: X denotes no observable zone of inhibition; conditions: after 7 days, 250 μg/mL; for zone of inhibition at 250 µg/mL: 168 h
[17] = test system: Trichophyton mentagrophytes; assay: Zone of inhibition assay (agar plates); type: cell-based; parameters: key to Zone of Inhibition: X denotes no observable zone of inhibition; conditions: after 7 days, 250 μg/mL
[18] = test system: Aspergillus flavus; assay: Zone of inhibition assay (agar plates); type: cell-based; parameters: key to Zone of Inhibition: X denotes no observable zone of inhibition; conditions: after 7 days, 250 μg/mL

## COC1=CC(=O)C[C@@H](C)[C@]12Oc1c(Cl)c(OC)cc(OC)c1C2=O [GRI, griseofulvin]
[1]
  side effects: elevated liver enzymes
[2]
  success rates of the treatments: 17.5%

## CC(=O)N1CCN(c2ccc(OCC3COC(Cn4ccnc4)(c4ccc(Cl)cc4Cl)O3)cc2)CC1 (stereo not drawn) [KET, ketoconazole]
[1]
  side effects: elevated liver enzymes; also recorded: anti-androgenic dysfunction in males and adrenal dysfunction
[2]
  success rates of the treatments: 40.8%

## CC12CCC(CC1=O)C2(C)C (stereo not drawn) [Ca, Camphor]
[3]
  Zone of Inhibition: X
[4]
  Zone of Inhibition: X
[5]
  Zone of Inhibition: X
[6]
  zone of inhibition at 250 µg/mL: 8 mm
[7]
  zone of inhibition at 250 µg/mL: 10 mm
[8]
  Zone of Inhibition: X
[9]
  zone of inhibition at 250 µg/mL: 2 mm
[10]
  Zone of Inhibition: X
[11]
  Zone of Inhibition: X
[12]
  zone of inhibition at 250 µg/mL: 7 mm
[13]
  Zone of Inhibition: X
[14]
  zone of inhibition at 250 µg/mL: 7 mm
[15]
  Zone of Inhibition: X
[16]
  Zone of Inhibition: X
[17]
  Zone of Inhibition: X
[18]
  Zone of Inhibition: X

## CCC(C)n1ncn(-c2ccc(N3CCN(c4ccc(OCC5COC(Cn6cncn6)(c6ccc(Cl)cc6Cl)O5)cc4)CC3)cc2)c1=O (stereo not drawn) [itraconazole]
[1]
  side effects: elevations of serum transaminases, alkaline phosphatase and bilirubin

## CC1CCC(C(C)C)C(O)C1 (stereo not drawn) [M, Menthol]
[3]
  Zone of Inhibition: X
[4]; Epidermophyton floccosum, 168 h
  zone of inhibition at 250 µg/mL: 2 mm
[5]
  Zone of Inhibition: X
[6]
  zone of inhibition at 250 µg/mL: 15 mm
[7]
  zone of inhibition at 250 µg/mL: 15 mm
[8]
  Zone of Inhibition: X
[9]
  zone of inhibition at 250 µg/mL: 3 mm
[10]
  Zone of Inhibition: X
[11]
  zone of inhibition at 250 µg/mL: 9 mm
[12]
  zone of inhibition at 250 µg/mL: 11 mm
[13]
  Zone of Inhibition: X
[14]
  zone of inhibition at 250 µg/mL: 14 mm
[15]
  Zone of Inhibition: X
[16]
  zone of inhibition at 250 µg/mL: 12 mm
[17]
  Zone of Inhibition: X
[18]
  Zone of Inhibition: X

## CN(C/C=C/C#CC(C)(C)C)Cc1cccc2ccccc12 [TER, terbinafine]
[2]
  success rates of the treatments: 78.3%

## Cc1ccc(C(C)C)c(O)c1 [T, Thymol]
[3]
  Zone of Inhibition: X
[4]
  Zone of Inhibition: X
[5]; Neoscytalidium hyalinum, 168 h
  zone of inhibition at 250 µg/mL: 5 mm
[6]
  zone of inhibition at 250 µg/mL: 16 mm
[7]
  zone of inhibition at 250 µg/mL: 20 mm
[8]; Fusarium oxysporum, 168 h
  zone of inhibition at 250 µg/mL: 2 mm
[9]
  zone of inhibition at 250 µg/mL: 20 mm
[10]; Scopulariopsis brevicaulis, 168 h
  zone of inhibition at 250 µg/mL: 14 mm
[11]
  zone of inhibition at 250 µg/mL: 12 mm
[12]
  zone of inhibition at 250 µg/mL: 20 mm
[13]; Aspergillus terreus, 168 h
  zone of inhibition at 250 µg/mL: 3 mm
[14]
  zone of inhibition at 250 µg/mL: 17 mm
[15]; Fusarium proliferatum, 168 h
  zone of inhibition at 250 µg/mL: 3 mm
[16]
  zone of inhibition at 250 µg/mL: 16 mm
[17]; Trichophyton mentagrophytes, 168 h
  zone of inhibition at 250 µg/mL: 10 mm
[18]; Aspergillus flavus, 168 h
  zone of inhibition at 250 µg/mL: 6 mm

From patent publication US6344190B1, “Method and compositions for treatment of fungal nail disease” (Board of Trustees of Michigan State University, priority 1999, dated 2002)
